Laboratory results: ChEMBL document CHEMBL2177026, “Acyl guanidine inhibitors of β-secretase (BACE-1): optimization of a micromolar hit to a nanomolar lead via iterative solid- and solution-phase library synthesis” (J Med Chem, 2012)
Active and inactive are the calls of the source. The rule behind the calls is not given here.

Tests used:
[1] = Inhibition of pepsin by radioligand binding assay
[2] = molecular target: T1, Cathepsin E (Homo sapiens) (UniProt P14091); test: Inhibition of cathepsin E by radioligand binding assay
T1 sequence (whole entry): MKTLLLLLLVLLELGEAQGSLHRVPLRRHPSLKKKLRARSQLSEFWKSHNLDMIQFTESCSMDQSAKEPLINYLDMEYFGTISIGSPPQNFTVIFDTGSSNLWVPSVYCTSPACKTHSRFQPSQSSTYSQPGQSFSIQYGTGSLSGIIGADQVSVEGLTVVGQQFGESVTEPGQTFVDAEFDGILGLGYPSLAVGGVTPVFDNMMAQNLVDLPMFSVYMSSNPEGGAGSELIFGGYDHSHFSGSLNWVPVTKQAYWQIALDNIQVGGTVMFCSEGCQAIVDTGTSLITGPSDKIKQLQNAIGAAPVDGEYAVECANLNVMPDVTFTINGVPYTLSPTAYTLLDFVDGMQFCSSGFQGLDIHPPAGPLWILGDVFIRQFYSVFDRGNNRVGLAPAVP

[3] = molecular target: Cathepsin D (Homo sapiens) (UniProt P07339); test: Inhibition of cathepsin D by radioligand binding assay
Beta-secretase 1 [4] = molecular target: T2, Beta-secretase 1 (Homo sapiens, UniProt P56817); test: Ratio of IC50 for BACE1 in human KBV1 cells expressing APP 751 Swedish mutant in absence of tariquidar to IC50 for BACE1 in human KBV1 cells expressing APP 751 Swedish mutant in presence of tariquidar; type: cell-based
Beta-secretase 1 [5] = molecular target: T2, Beta-secretase 1; test: Inhibition of BACE1 in human KBV1 cells expressing APP 751 Swedish mutant assessed as inhibition of amyloid beta (1 to 40) production after overnight incubation by ELISA in presence of tariquidar; type: cell-based
Beta-secretase 1 [6] = molecular target: T2, Beta-secretase 1; test: Inhibition of BACE1 in human KBV1 cells expressing APP 751 Swedish mutant assessed as inhibition of amyloid beta (1 to 40) production after overnight incubation by ELISA in absence of tariquidar; type: cell-based
[7] = Drug uptake in rat CSF at 40 mg/kg, sc preadministered with ABT measured after 5 hrs by LC/MS/MS analysis; type: ADME, organism-based, Cerebrospinal fluid; design: dose 40 mg/kg, route subcutaneous; settings: read-out: Drug uptake
[8] = Drug uptake in rat CSF at 15 mg/kg, sc after 5 hrs by LC/MS/MS analysis; type: ADME, organism-based, Cerebrospinal fluid; design: dose 15 mg/kg, route subcutaneous; settings: read-out: Drug uptake
[9] = Drug uptake in rat CSF at 5 mg/kg, sc measured after 5 hrs by LC/MS/MS analysis; type: ADME, organism-based, Cerebrospinal fluid; design: dose 5 mg/kg, route subcutaneous; settings: read-out: Drug uptake
[10] = Drug uptake in rat brain at 40 mg/kg, sc preadministered with ABT measured after 5 hrs by LC/MS/MS analysis; type: ADME, organism-based; design: dose 40 mg/kg, route subcutaneous; settings: read-out: Drug uptake
[11] = Drug uptake in rat brain at 15 mg/kg, sc after 5 hrs by LC/MS/MS analysis; type: ADME, organism-based; design: dose 15 mg/kg, route subcutaneous; settings: read-out: Drug uptake
[12] = Drug uptake in rat brain at 5 mg/kg, sc measured after 5 hrs by LC/MS/MS analysis; type: ADME, organism-based; design: dose 5 mg/kg, route subcutaneous; settings: read-out: Drug uptake
[13] = Plasma concentration in rat at 40 mg/kg, sc preadministered with ABT measured after 5 hrs by LC/MS/MS analysis; type: ADME, organism-based; design: dose 40 mg/kg, route subcutaneous
[14] = Plasma concentration in rat at 5 mg/kg, sc measured after 5 hrs by LC/MS/MS analysis; type: ADME, organism-based; design: dose 5 mg/kg, route subcutaneous
[15] = Plasma concentration in rat at 15 mg/kg, sc after 5 hrs by LC/MS/MS analysis; type: ADME, organism-based; design: dose 15 mg/kg, route subcutaneous
Rattus norvegicus [16] = test: Antialzheimer activity in rat assessed as amyloid beta (1 to 40) level in CSF at 40 mg/kg, sc preadministered with ABT measured after 5 hrs by ELISA relative to control; type: functional; settings: route subcutaneous
Rattus norvegicus [17] = test: Antialzheimer activity in rat assessed as amyloid beta (1 to 40) level in CSF at 15 mg/kg, sc measured after 5 hrs by ELISA relative to control; type: functional; settings: route subcutaneous
Rattus norvegicus [18] = test: Antialzheimer activity in rat assessed as amyloid beta (1 to 40) level in CSF at 5 mg/kg, sc measured after 5 hrs by ELISA relative to control; type: functional; settings: route subcutaneous
Rattus norvegicus [19] = test: Antialzheimer activity in rat assessed as amyloid beta (1 to 40) level in brain at 40 mg/kg, sc preadministered with ABT measured after 5 hrs by ELISA relative to control; type: functional; settings: route subcutaneous
Rattus norvegicus [20] = test: Antialzheimer activity in rat assessed as amyloid beta (1 to 40) level in brain at 15 mg/kg, sc measured after 5 hrs by ELISA relative to control; type: functional; settings: route subcutaneous
Rattus norvegicus [21] = test: Antialzheimer activity in sc dosed rat assessed as reduction in amyloid beta (1 to 40) level in plasma measured after 5 hrs by ELISA relative to control; type: functional, organism-based
Rattus norvegicus [22] = test: Antialzheimer activity in rat assessed as amyloid beta (1 to 40) level in brain at 5 mg/kg, sc measured after 5 hrs by ELISA relative to control; type: functional; settings: route subcutaneous
Rattus norvegicus [23] = test: Antialzheimer activity in rat assessed as amyloid beta (1 to 40) level in plasma at 40 mg/kg, sc preadministered with ABT measured after 5 hrs by ELISA relative to control; type: functional; settings: route subcutaneous
Rattus norvegicus [24] = test: Antialzheimer activity in rat assessed as amyloid beta (1 to 40) level in plasma at 15 mg/kg, sc measured after 5 hrs by ELISA relative to control; type: functional; settings: route subcutaneous
Rattus norvegicus [25] = test: Antialzheimer activity in rat assessed as amyloid beta (1 to 40) level in plasma at 5 mg/kg, sc measured after 5 hrs by ELISA relative to control; type: functional; settings: route subcutaneous
[26] = molecular target: Voltage-gated inwardly rectifying potassium channel KCNH2 (Homo sapiens, UniProt Q12809); test: Activity at human ERG channel by fluorescence-based thallium flux assay
Beta-secretase 1 [27] = molecular target: T2, Beta-secretase 1; test: Ratio of IC50 for BACE1 in HEK293 cells expressing APP 695 Swedish mutant to Ki for BACE1; type: cell-based
Beta-secretase 1 [28] = molecular target: T2, Beta-secretase 1; test: Inhibition of BACE1 in human HEK293 cells expressing APP 695 Swedish mutant assessed as inhibition of amyloid beta (1 to 40) production after overnight incubation by ELISA; type: cell-based
Beta-secretase 1 [29] = molecular target: T2, Beta-secretase 1; test: Displacement of [3H]BMS-599240 from BACE1 expressed in HEK293 cells; type: cell-based

T2 sequence (P56817 whole entry): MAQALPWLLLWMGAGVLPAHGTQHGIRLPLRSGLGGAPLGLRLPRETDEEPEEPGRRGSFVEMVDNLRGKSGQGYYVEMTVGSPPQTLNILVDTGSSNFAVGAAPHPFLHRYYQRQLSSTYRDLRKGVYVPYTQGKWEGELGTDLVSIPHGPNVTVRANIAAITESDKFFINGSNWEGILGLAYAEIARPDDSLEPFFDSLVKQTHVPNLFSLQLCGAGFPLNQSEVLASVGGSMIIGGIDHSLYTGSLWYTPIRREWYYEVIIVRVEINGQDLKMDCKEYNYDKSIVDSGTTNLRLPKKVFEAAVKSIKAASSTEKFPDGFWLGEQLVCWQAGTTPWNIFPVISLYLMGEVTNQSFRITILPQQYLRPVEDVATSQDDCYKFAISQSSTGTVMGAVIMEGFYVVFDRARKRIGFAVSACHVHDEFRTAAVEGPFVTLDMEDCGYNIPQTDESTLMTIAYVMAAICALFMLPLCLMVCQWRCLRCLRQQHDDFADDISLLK
Voltage-gated inwardly rectifying potassium channel KCNH2, sequence (Q12809 whole entry): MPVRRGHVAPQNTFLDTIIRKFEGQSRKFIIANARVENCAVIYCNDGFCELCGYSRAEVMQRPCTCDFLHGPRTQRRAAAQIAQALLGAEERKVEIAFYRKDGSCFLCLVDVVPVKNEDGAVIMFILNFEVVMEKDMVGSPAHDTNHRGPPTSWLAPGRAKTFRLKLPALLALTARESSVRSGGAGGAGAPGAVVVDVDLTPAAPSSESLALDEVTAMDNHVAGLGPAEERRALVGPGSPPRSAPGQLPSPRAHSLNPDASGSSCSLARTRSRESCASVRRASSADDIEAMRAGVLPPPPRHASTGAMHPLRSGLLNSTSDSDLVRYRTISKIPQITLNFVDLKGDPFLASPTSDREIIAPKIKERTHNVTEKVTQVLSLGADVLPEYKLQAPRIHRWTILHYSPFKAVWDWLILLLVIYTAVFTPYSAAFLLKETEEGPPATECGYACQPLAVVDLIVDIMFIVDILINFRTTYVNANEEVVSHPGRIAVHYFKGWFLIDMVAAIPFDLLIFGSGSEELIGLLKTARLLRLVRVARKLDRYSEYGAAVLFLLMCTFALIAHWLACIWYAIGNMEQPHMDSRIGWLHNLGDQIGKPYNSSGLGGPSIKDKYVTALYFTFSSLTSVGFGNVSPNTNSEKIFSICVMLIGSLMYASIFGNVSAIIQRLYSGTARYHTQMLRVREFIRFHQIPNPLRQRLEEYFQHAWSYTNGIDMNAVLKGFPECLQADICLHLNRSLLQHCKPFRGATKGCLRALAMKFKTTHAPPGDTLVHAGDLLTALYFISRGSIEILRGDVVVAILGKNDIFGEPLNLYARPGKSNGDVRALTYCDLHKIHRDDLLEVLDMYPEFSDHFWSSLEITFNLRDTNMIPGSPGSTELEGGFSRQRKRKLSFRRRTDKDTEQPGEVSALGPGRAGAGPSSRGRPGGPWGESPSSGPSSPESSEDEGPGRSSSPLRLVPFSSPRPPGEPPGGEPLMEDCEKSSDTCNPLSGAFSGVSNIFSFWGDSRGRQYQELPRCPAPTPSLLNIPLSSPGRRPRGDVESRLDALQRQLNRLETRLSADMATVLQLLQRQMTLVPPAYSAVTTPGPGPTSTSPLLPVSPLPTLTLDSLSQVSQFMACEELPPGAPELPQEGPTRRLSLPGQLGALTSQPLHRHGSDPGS
Cathepsin D (Homo sapiens), sequence (P07339 65-162 limits assumed): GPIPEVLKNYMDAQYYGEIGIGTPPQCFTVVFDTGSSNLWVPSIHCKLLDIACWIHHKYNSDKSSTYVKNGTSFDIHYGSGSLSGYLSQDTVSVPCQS
Cathepsin D (Homo sapiens), sequence (P07339 169-412 limits assumed): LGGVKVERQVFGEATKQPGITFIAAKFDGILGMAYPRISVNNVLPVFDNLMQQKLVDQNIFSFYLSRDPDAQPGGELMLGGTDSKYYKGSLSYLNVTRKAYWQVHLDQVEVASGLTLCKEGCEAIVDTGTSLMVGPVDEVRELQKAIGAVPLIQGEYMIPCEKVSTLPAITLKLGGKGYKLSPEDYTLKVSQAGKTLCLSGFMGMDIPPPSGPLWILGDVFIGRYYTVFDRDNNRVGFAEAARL

Compound: COc1ccc(-c2nsc(C)c2C(=O)/N=C(\N)NCc2cc(C)c(NC(=O)CN3CCC3)c(Cl)c2)cc1
- inhibition [1]: inactive
- inhibition [2]: inactive
- inhibition [3]: inactive
- Ratio IC50 (Beta-secretase 1 [4]): 36
- IC50 (Beta-secretase 1 [5]): 5 nM
- IC50 (Beta-secretase 1 [6]): 180 nM
- concentration at 5 h [7]: 39 nM
- concentration at 5 h [8]: 8 nM
- concentration at 5 h [9]: 4 nM
- concentration at 5 h [10]: 586 nM
- concentration at 5 h [11]: 320 nM
- concentration at 5 h [12]: 89 nM
- concentration at 5 h [13]: 6640 nM
- concentration at 5 h [14]: 378 nM
- concentration at 5 h [15]: 1170 nM
- Activity (Rattus norvegicus [16]): 82%
- Activity (Rattus norvegicus [17]): 98%
- Activity (Rattus norvegicus [18]): 105%
- Activity (Rattus norvegicus [19]): 94%
- Activity (Rattus norvegicus [20]): 102%
- Activity (Rattus norvegicus [21]): Dose-dependent effect
- Activity (Rattus norvegicus [22]): 89%
- Activity (Rattus norvegicus [23]): 4%
- Activity (Rattus norvegicus [24]): 8%
- Activity (Rattus norvegicus [25]): 18%
- Activity [26]: Not Active
- Ratio (Beta-secretase 1 [27]): 1
- IC50 (Beta-secretase 1 [28]): 5 nM
- Ki (Beta-secretase 1 [29]): 5 nM

Compound: COc1ccc(-c2noc(C)c2C(=O)/N=C(\N)NCc2cc(Cl)cc(Cl)c2)cc1
- Ratio IC50 (Beta-secretase 1 [4]): 0.8
- IC50 (Beta-secretase 1 [5]): 3900 nM
- IC50 (Beta-secretase 1 [6]): 3300 nM
- IC50 (Beta-secretase 1 [28]): 1600 nM
- Ki (Beta-secretase 1 [29]): 670 nM

Compound: COc1ccc(-c2nsc(C)c2C(=O)NC(N)=NCc2cc(Cl)c(NC(=O)CN3CCC3)c(Cl)c2)cc1
- IC50 (Beta-secretase 1 [5]): 8 nM
- IC50 (Beta-secretase 1 [6]): 180 nM
- IC50 (Beta-secretase 1 [28]): 8 nM
- Ki (Beta-secretase 1 [29]): 4 nM

Compound: COc1ccc(-c2nsc(C)c2C(=O)/N=C(/N)NCc2cc(Cl)c(N)c(Cl)c2)cc1
- IC50 (Beta-secretase 1 [5]): 1030 nM
- IC50 (Beta-secretase 1 [6]): 1700 nM
- IC50 (Beta-secretase 1 [28]): 630 nM
- Ki (Beta-secretase 1 [29]): 40 nM

Compound: COc1ccc(-c2nsc(C)c2C(=O)/N=C(\N)NCc2cc(Cl)c(NC(C)=O)c(Cl)c2)cc1
- Ratio IC50 (Beta-secretase 1 [4]): > 32
- IC50 (Beta-secretase 1 [5]): 310 nM
- IC50 (Beta-secretase 1 [6]): > 10000 nM
- Ratio (Beta-secretase 1 [27]): 62
- IC50 (Beta-secretase 1 [28]): 310 nM
- Ki (Beta-secretase 1 [29]): 5 nM
